Activity calls are given as the source filed them. The rule behind the calls is not given here.
Tested on: CCRIS mutagenicity, Ames/micronucleus/aberration tests
Assay: CCRIS mutagenicity studies
[1] = Test System: AMES SALMONELLA TYPHIMURIUM, Strain/Indicator: TA98, Metabolic Activation: NONE, Method: PREINCUBATION
[2] = Test System: AMES SALMONELLA TYPHIMURIUM, Strain/Indicator: TA100, Metabolic Activation: NONE, Method: PREINCUBATION
[3] = Test System: AMES SALMONELLA TYPHIMURIUM, Strain/Indicator: TA1535, Metabolic Activation: NONE, Method: PREINCUBATION
[4] = Test System: AMES SALMONELLA TYPHIMURIUM, Strain/Indicator: TA1537, Metabolic Activation: NONE, Method: PREINCUBATION
[5] = Test System: AMES SALMONELLA TYPHIMURIUM, Strain/Indicator: TA97, Metabolic Activation: NONE, Method: PREINCUBATION

`CCNCCN` was tested, and the mutagenic call [1] was “inactive; negative”, the mutagenic call (Test System: AMES SALMONELLA TYPHIMURIUM, Strain/Indicator: TA98, Metabolic Activation: RAT LIVER S-9, PHENOBARBITAL AND BETA-NAPHTHOFLAVONE, Method: PREINCUBATION) was “inactive; negative” and the mutagenic call [2] was “inactive; negative”. For the same compound, the mutagenic call (Test System: AMES SALMONELLA TYPHIMURIUM, Strain/Indicator: TA100, Metabolic Activation: RAT LIVER S-9, PHENOBARBITAL AND BETA-NAPHTHOFLAVONE, Method: PREINCUBATION) was “inactive; negative”, the mutagenic call [3] was “inactive; negative” and the mutagenic call (Test System: AMES SALMONELLA TYPHIMURIUM, Strain/Indicator: TA1535, Metabolic Activation: RAT LIVER S-9, PHENOBARBITAL AND BETA-NAPHTHOFLAVONE, Method: PREINCUBATION) was “inactive; negative”. For the same compound, the mutagenic call [4] was “inactive; negative”, the mutagenic call (Test System: AMES SALMONELLA TYPHIMURIUM, Strain/Indicator: TA1537, Metabolic Activation: RAT LIVER S-9, PHENOBARBITAL AND BETA-NAPHTHOFLAVONE, Method: PREINCUBATION) was “inactive; negative” and the mutagenic call (Test System: AMES SALMONELLA TYPHIMURIUM, Strain/Indicator: TA1538, Metabolic Activation: NONE, Method: PREINCUBATION) was “inactive; negative”. The mutagenic call (Test System: AMES SALMONELLA TYPHIMURIUM, Strain/Indicator: TA1538, Metabolic Activation: RAT LIVER S-9, PHENOBARBITAL AND BETA-NAPHTHOFLAVONE, Method: PREINCUBATION) was “inactive; negative”, the mutagenic call (Test System: E.COLI, Strain/Indicator: WP2UVRA, Metabolic Activation: NONE, Method: PREINCUBATION) was “inactive; negative” and the mutagenic call (Test System: E.COLI, Strain/Indicator: WP2UVRA, Metabolic Activation: RAT LIVER S-9, PHENOBARBITAL AND BETA-NAPHTHOFLAVONE, Method: PREINCUBATION) was “inactive; negative”.
For `CCCCCCCCCCCCC/C([O-])=N/[N+](C)(C)CC(C)O` (stereo unspecified), the mutagenic call (Test System: AMES SALMONELLA TYPHIMURIUM, Strain/Indicator: TA97, Metabolic Activation: HAMSTER, LIVER, S-9, AROCLOR 1254 (10 OR 30%), Method: PREINCUBATION) was “inactive; negative”, the mutagenic call [5] was “inactive; negative” and the mutagenic call (Test System: AMES SALMONELLA TYPHIMURIUM, Strain/Indicator: TA97, Metabolic Activation: RAT, LIVER, S-9, AROCLOR 1254 (10 OR 30%), Method: PREINCUBATION) was “inactive; negative”. For the same compound, the mutagenic call (Test System: AMES SALMONELLA TYPHIMURIUM, Strain/Indicator: TA98, Metabolic Activation: HAMSTER, LIVER, S-9, AROCLOR 1254 (10%), Method: PREINCUBATION) was “inactive; negative”, the mutagenic call (Test System: AMES SALMONELLA TYPHIMURIUM, Strain/Indicator: TA98, Metabolic Activation: HAMSTER, LIVER, S-9, AROCLOR 1254 (30%), Method: PREINCUBATION) was “inactive; negative” and the mutagenic call [1] was “inactive; negative”. The mutagenic call (Test System: AMES SALMONELLA TYPHIMURIUM, Strain/Indicator: TA98, Metabolic Activation: RAT, LIVER, S-9, AROCLOR 1254 (10%), Method: PREINCUBATION) was “inactive; negative”, the mutagenic call (Test System: AMES SALMONELLA TYPHIMURIUM, Strain/Indicator: TA98, Metabolic Activation: RAT, LIVER, S-9, AROCLOR 1254 (30%), Method: PREINCUBATION) was “inactive; negative” and the mutagenic call (Test System: AMES SALMONELLA TYPHIMURIUM, Strain/Indicator: TA100, Metabolic Activation: HAMSTER, LIVER, AROCLOR 1254 (10%), Method: PREINCUBATION) was “inactive; negative”. For the same compound, the mutagenic call (Test System: AMES SALMONELLA TYPHIMURIUM, Strain/Indicator: TA100, Metabolic Activation: HAMSTER, LIVER, S-9, AROCLOR 1254 (30%), Method: PREINCUBATION) was “inactive; negative”, the mutagenic call [2] was “inactive; negative” and the mutagenic call (Test System: AMES SALMONELLA TYPHIMURIUM, Strain/Indicator: TA100, Metabolic Activation: RAT, LIVER, S-9, AROCLOR 1254 (10%), Method: PREINCUBATION) was “inactive; negative”. For the same compound, the mutagenic call (Test System: AMES SALMONELLA TYPHIMURIUM, Strain/Indicator: TA100, Metabolic Activation: RAT, LIVER, S-9, AROCLOR 1254 (30%), Method: PREINCUBATION) was “inactive; negative”, the mutagenic call (Test System: AMES SALMONELLA TYPHIMURIUM, Strain/Indicator: TA1535, Metabolic Activation: HAMSTER, LIVER, S-9, AROCLOR 1254 (10 OR 30%), Method: PREINCUBATION) was “inactive; negative” and the mutagenic call [3] was “inactive; negative”. For the same compound, the mutagenic call (Test System: AMES SALMONELLA TYPHIMURIUM, Strain/Indicator: TA1535, Metabolic Activation: RAT, LIVER, S-9, AROCLOR 1254 (10 OR 30%), Method: PREINCUBATION) was “inactive; negative”, the mutagenic call (Test System: AMES SALMONELLA TYPHIMURIUM, Strain/Indicator: TA1537, Metabolic Activation: HAMSTER, LIVER, S-9, AROCLOR 1254 (10 OR 30%), Method: PREINCUBATION) was “inactive; negative” and the mutagenic call [4] was “inactive; negative”. For the same compound, the mutagenic call (Test System: AMES SALMONELLA TYPHIMURIUM, Strain/Indicator: TA1537, Metabolic Activation: RAT, LIVER, S-9, AROCLOR 1254 (10 OR 30%), Method: PREINCUBATION) was “inactive; negative”.
In the case of `N[C@@H](CCC(=O)N[C@@H](CSC(=O)NCCCl)C(=O)NCC(=O)O)C(=O)O`, the mutagenic call (Test System: AMES SALMONELLA TYPHIMURIUM, Strain/Indicator: TA1535, Metabolic Activation: NONE, Method: STANDARD PLATE) is reported as “active; positive”.
With `c1ccc2sc(SSc3nc4ccccc4s3)nc2c1` the mutagenic call (Test System: AMES SALMONELLA TYPHIMURIUM, Strain/Indicator: TA97, Metabolic Activation: HAMSTER, LIVER, S-9, AROCLOR 1254 (10%), Method: PREINCUBATION) was “inactive; negative”, the mutagenic call [5] was “active; positive” and the mutagenic call (Test System: AMES SALMONELLA TYPHIMURIUM, Strain/Indicator: TA97, Metabolic Activation: RAT, LIVER, S-9, AROCLOR 1254 (10%), Method: PREINCUBATION) was “inactive; negative”. The mutagenic call (Test System: AMES SALMONELLA TYPHIMURIUM, Strain/Indicator: TA98, Metabolic Activation: HAMSTER, LIVER, S-9, AROCLOR 1254 (10 OR 30%), Method: PREINCUBATION) was “inactive; negative”, the mutagenic call (Test System: AMES SALMONELLA TYPHIMURIUM, Strain/Indicator: TA98, Metabolic Activation: RAT, LIVER, S-9, AROCLOR 1254 (10 OR 30%), Method: PREINCUBATION) was “inactive; negative” and the mutagenic call (Test System: AMES SALMONELLA TYPHIMURIUM, Strain/Indicator: TA100, Metabolic Activation: HAMSTER, LIVER, S-9, AROCLOR 1254 (10 OR 30%), Method: PREINCUBATION) was “inactive; negative”. For the same compound, the mutagenic call [2] was “inactive; negative”, the mutagenic call (Test System: AMES SALMONELLA TYPHIMURIUM, Strain/Indicator: TA100, Metabolic Activation: RAT, LIVER, S-9, AROCLOR 1254 (10 OR 30%), Method: PREINCUBATION) was “active; positive” and the mutagenic call (Test System: AMES SALMONELLA TYPHIMURIUM, Strain/Indicator: TA1535, Metabolic Activation: HAMSTER, LIVER, S-9, AROCLOR 1254 (10%), Method: PREINCUBATION) was “inactive; negative”. The mutagenic call [3] was “inactive; negative” and the mutagenic call (Test System: AMES SALMONELLA TYPHIMURIUM, Strain/Indicator: TA1535, Metabolic Activation: RAT, LIVER, S-9, AROCLOR 1254 (10%), Method: PREINCUBATION) was “inactive; negative”.
In the case of `CC1=CC(=O)c2nc(C)c3c([nH]c4ccccc43)c2C1=O`, the mutagenic call (Test System: AMES SALMONELLA TYPHIMURIUM, Strain/Indicator: TA97, Metabolic Activation: NONE, Method: STANDARD PLATE) is reported as “active; positive”, the mutagenic call (Test System: AMES SALMONELLA TYPHIMURIUM, Strain/Indicator: TA97, Metabolic Activation: RAT, LIVER, S-9, AROCLOR 1254, Method: STANDARD PLATE) is reported as “active; positive” and the mutagenic call (Test System: AMES SALMONELLA TYPHIMURIUM, Strain/Indicator: TA98, Metabolic Activation: NONE, Method: STANDARD PLATE) is reported as “active; positive”. The mutagenic call (Test System: AMES SALMONELLA TYPHIMURIUM, Strain/Indicator: TA98, Metabolic Activation: RAT, LIVER, S-9, AROCLOR 1254, Method: STANDARD PLATE) was “active; positive”, the mutagenic call (Test System: AMES SALMONELLA TYPHIMURIUM, Strain/Indicator: TA100, Metabolic Activation: NONE, Method: STANDARD PLATE) was “active; positive” and the mutagenic call (Test System: AMES SALMONELLA TYPHIMURIUM, Strain/Indicator: TA100, Metabolic Activation: RAT, LIVER, S-9, AROCLOR 1254, Method: STANDARD PLATE) was “inactive; negative”. For the same compound, the mutagenic call (Test System: AMES SALMONELLA TYPHIMURIUM, Strain/Indicator: TA102, Metabolic Activation: NONE, Method: STANDARD PLATE) was “inactive; negative” and the mutagenic call (Test System: AMES SALMONELLA TYPHIMURIUM, Strain/Indicator: TA102, Metabolic Activation: RAT, LIVER, S-9, AROCLOR 1254, Method: STANDARD PLATE) was “inactive; negative”.
